In ChEMBL document CHEMBL1201862, “PubChem BioAssay data set” (2004):
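The compound was tested at five concentrations on cells cultured in 96-well plates, with a 48-hour exposure period. Here, GI50 denotes the concentration required for 50% inhibition of growth.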 Calls of active or inactive are those of the source. Cut-off read from the data, not from the text of the source: active = GI50 up to about 1.1 µM and inactive = higher.

Key:
Test in all cases: NCI tumour cell line growth inhibition, 48 h
EKVX = test system: EKVX
NCI-H460 = test system: NCI-H460
SW-620 = test system: SW-620
UACC-62 = test system: UACC-62
ACHN = test system: ACHN
CCRF-CEM = test system: CCRF-CEM
K562 = test system: K562
RXF 393 = test system: RXF 393
HCT-116 = test system: HCT-116
A549 = test system: A549
SNB-19 = test system: SNB-19
M14 = test system: M14
NCI-H522 = test system: NCI-H522
Malme-3M = test system: Malme-3M
OVCAR-3 = test system: OVCAR-3
HL-60 = test system: HL-60
CAKI-1 = test system: CAKI-1

Measured: GI50

COc1nc2c(c(O)c(C)c(=O)n2OC2OC(COC(C)=O)C(OC(C)=O)C(OC(C)=O)C2OC(C)=O)c(=O)n1C (centres undefined)
inactive: EKVX > 100 µM | NCI-H460 > 100 µM | SW-620 > 100 µM | UACC-62 > 100 µM | ACHN > 100 µM | CCRF-CEM > 100 µM | K562 > 100 µM | RXF 393 > 100 µM | HCT-116 > 100 µM | A549 > 100 µM | SNB-19 > 100 µM | M14 > 100 µM | NCI-H522 44.8 µM

N#CCCn1[nH]c(=O)c(Cl)c(Cl)c1=O
inactive: Malme-3M 17.3 µM | EKVX 3.87 µM | NCI-H460 13.3 µM | SW-620 17.8 µM | OVCAR-3 13.6 µM | ACHN 17 µM | K562 6.12 µM | RXF 393 17.1 µM | HCT-116 15.1 µM | A549 22.7 µM | SNB-19 15.4 µM | HL-60 11.3 µM | NCI-H522 20.2 µM

Cc1ccccc1N(CCC#N)C1=NN(C(=O)CC(=O)Nc2ccccc2)C(c2ccccc2)C1 (centres undefined)
inactive: Malme-3M > 100 µM | EKVX > 100 µM | NCI-H460 > 100 µM | SW-620 > 100 µM | OVCAR-3 > 100 µM | UACC-62 > 100 µM | ACHN > 100 µM | CCRF-CEM > 100 µM | K562 > 100 µM | RXF 393 > 100 µM | HCT-116 > 100 µM | A549 > 100 µM | SNB-19 > 100 µM | M14 > 100 µM | HL-60 > 100 µM | NCI-H522 > 100 µM

NCC(NC(=O)OCc1ccccc1)C(=O)O (centres undefined)
inactive: Malme-3M > 50 µM | EKVX > 50 µM | NCI-H460 > 50 µM | SW-620 > 50 µM | OVCAR-3 > 50 µM | UACC-62 > 50 µM | ACHN > 50 µM | CCRF-CEM > 50 µM | K562 > 50 µM | HCT-116 > 50 µM | A549 > 50 µM | CAKI-1 > 50 µM | SNB-19 > 50 µM | M14 > 50 µM | HL-60 > 50 µM | NCI-H522 > 50 µM

Cc1cc2c(C)nn(Cc3ccccc3Cl)c2c(C#N)c1C
inactive: Malme-3M > 100 µM | EKVX > 100 µM | NCI-H460 > 100 µM | SW-620 > 100 µM | OVCAR-3 > 100 µM | UACC-62 > 100 µM | ACHN > 100 µM | CCRF-CEM > 100 µM | RXF 393 > 100 µM | HCT-116 > 100 µM | A549 > 100 µM | SNB-19 > 100 µM | HL-60 > 100 µM

O=C(O)/C(Cl)=C(Cl)/C=N/NC(=O)c1cc2ccccc2cc1O
inactive: Malme-3M 37.2 µM | EKVX 30.2 µM | NCI-H460 21 µM | SW-620 17.3 µM | OVCAR-3 6.11 µM | UACC-62 3.6 µM | ACHN 18 µM | CCRF-CEM 4.86 µM | K562 6.11 µM | HCT-116 13.9 µM | A549 9.18 µM | CAKI-1 21 µM | SNB-19 35.2 µM | M14 14.5 µM | HL-60 5.42 µM | NCI-H522 22.1 µM

CC(=O)OC1CC2(C)OC(Cc3ccccc32)O1 (centres undefined)
inactive: Malme-3M > 100 µM | EKVX > 100 µM | NCI-H460 > 100 µM | SW-620 > 100 µM | OVCAR-3 > 100 µM | UACC-62 > 100 µM | ACHN > 100 µM | CCRF-CEM > 100 µM | K562 > 100 µM | RXF 393 > 100 µM | HCT-116 > 100 µM | A549 > 100 µM | SNB-19 > 100 µM | M14 > 100 µM | HL-60 > 100 µM | NCI-H522 > 100 µM

COc1c(O)ccc(/C=N/NC(=S)NCOCCOC(C)=O)c1OC
inactive: Malme-3M > 100 µM | EKVX > 100 µM | NCI-H460 > 100 µM | SW-620 > 100 µM | OVCAR-3 > 100 µM | UACC-62 > 100 µM | ACHN > 100 µM | CCRF-CEM > 100 µM | K562 > 100 µM | RXF 393 > 100 µM | HCT-116 > 100 µM | A549 > 100 µM | SNB-19 > 100 µM | M14 > 100 µM | HL-60 > 100 µM | NCI-H522 > 100 µM

c1ccc2cc(C3NCCc4nc[nH]c43)ccc2c1 (centres undefined)
inactive: NCI-H460 52 µM | SW-620 61.8 µM | OVCAR-3 61.2 µM | UACC-62 55.7 µM | ACHN 23.5 µM | CCRF-CEM 35.6 µM | K562 29.6 µM | RXF 393 61.1 µM | HCT-116 67.3 µM | A549 > 100 µM | CAKI-1 60.3 µM | M14 39.9 µM | NCI-H522 34 µM

CCCCN(CCCC)C(=O)C(=O)C(C)C(=O)CC (centres undefined)
inactive: Malme-3M > 100 µM | NCI-H460 > 100 µM | SW-620 > 100 µM | OVCAR-3 > 100 µM | UACC-62 > 100 µM | ACHN > 100 µM | K562 > 100 µM | A549 > 100 µM | CAKI-1 > 100 µM | SNB-19 > 100 µM | M14 > 100 µM | HL-60 > 100 µM | NCI-H522 > 100 µM

O=C(c1ccccc1)c1c(CNCc2ccccc2)n(C(=O)c2ccccc2)c2ccccc12
inactive: Malme-3M 77.1 µM | NCI-H460 14.5 µM | SW-620 71.6 µM | OVCAR-3 15.4 µM | UACC-62 95.3 µM | ACHN 14.5 µM | CCRF-CEM 23.2 µM | K562 6.37 µM | HCT-116 8.67 µM | A549 22.4 µM | CAKI-1 69.3 µM | SNB-19 22.8 µM | M14 34.4 µM | HL-60 23.3 µM | NCI-H522 4.52 µM

COc1ccc(N2C(=O)C3CC(c4ccc(C)cc4)c4c([nH]c5ccccc45)C3C2=O)cc1 (centres undefined)
inactive: Malme-3M 15.5 µM | EKVX > 63.5 µM | NCI-H460 4.9 µM | SW-620 6.22 µM | OVCAR-3 5.65 µM | UACC-62 > 100 µM | ACHN 21.6 µM | CCRF-CEM 11 µM | K562 > 63 µM | HCT-116 4.43 µM | A549 12.2 µM | CAKI-1 > 96.2 µM | SNB-19 12.4 µM | M14 33.8 µM | HL-60 14.5 µM | NCI-H522 19.5 µM

COc1cc(/C=N/N=C(\N)NO)ccc1O
inactive: Malme-3M 75.9 µM | EKVX 71.9 µM | NCI-H460 38.8 µM | SW-620 68.2 µM | UACC-62 30.4 µM | ACHN 44.1 µM | CCRF-CEM > 100 µM | K562 33.3 µM | RXF 393 31.5 µM | HCT-116 69.8 µM | A549 47.3 µM | CAKI-1 28.6 µM | SNB-19 > 100 µM | NCI-H522 46.3 µM

Cc1ccc(-c2cc(=O)c3cc(C)c(C)c(C(=O)O)c3o2)cc1
inactive: Malme-3M > 100 µM | EKVX > 100 µM | NCI-H460 > 100 µM | SW-620 > 100 µM | OVCAR-3 > 100 µM | UACC-62 > 100 µM | ACHN > 100 µM | CCRF-CEM > 100 µM | K562 > 10 µM | HCT-116 > 100 µM | A549 > 100 µM | SNB-19 > 100 µM | M14 > 100 µM | NCI-H522 24.3 µM
